Tested on: P2X2/3 chimera (P2X2/3C)
Assay: Calcium uptake assay (P2X antagonist assay, agonist-induced calcium influx)
Assay type: cell-based
Source text: Human P2X3 (Accession no. NM_002559), P2X2 (Accession no. NM_170682) and Rat P2X3 (Accession no. NM_031075) and P2X2 (Accession no. NM_053656) are cloned into a mammalian expression vector (e.g., pcDNA5/TO or pcDNA3 Invitrogen). For coexpression of P2X2 and P2X3, the coding regions of both receptors were cloned into a bicistronic vector using methods similar to those described by Kawashima et al., Receptors Channels 5:53-60, 1998. The P2X2/3 chimera clone was created as described by Neelands et al, and then cloned into an expression vector as above. Receptors are expressed in cells (e.g., HEK293 or 1321N1) via transient transfection using standard lipid mediated transfection, or by creation of stable transfectants for each receptor. Cell lines are maintained in DMEM+5% Glutamax, the appropriate level of selective antibiotic, and 10% heat inactivated FBS.
The agonist EC50 is determined at the start of the assay and compound IC50 experiments are run using a set agonist concentration (EC50-90 depending on cell line) as stimulus. The agonists used are αβMeATP, ATP, or other ATP analogs. Compounds may be tested at concentrations ranging from 1 μM to 10 μM. Functional activity of compounds at the P2X receptor is determined by measuring their ability to inhibit agonist-induced calcium influx. Compounds may be tested for antagonist activity against the P2X2/3 chimera, the P2X3 homomer, or the P2X2/3 heteromer. To test for antagonist activity, cells expressing the appropriate receptor are seeded onto 96 or 384 well plates 18-24 hours prior to assay. On the day of the assay, cells are loaded with calcium-sensitive fluorescent dye (e.g., Fluo-4 no wash reagent-Invitrogen cat# F36206, or the BD™ PBX Calcium Assay Kit-BD cat#640175) in Hank's Buffered Salt Solution (HBSS) with up to 10 mM supplemental CaCl2. Plates are incubated at 37° C. and then equilibrated at room temperature. Antagonism of agonist-induced calcium influx is measured using a fluorescent imaging plate reader. The assay comprises two stages: a pre-treatment phase followed by a treatment phase. Compounds may be tested as follows: For the pre-treatment phase, 50 μL of 3× concentration of test compound in HBSS is added to cells containing 100 μL of dye loading media to achieve a final concentration of 1×. For the treatment phase, at a set interval after pre-treatment, 50 μL of 1× test compound plus 4× agonist solution is added to cells. Fluorescence is measured at 0.1-3 second intervals with an excitation wavelength of 494 nm and an emission wavelength of 515 nm. Responses are measured as peak fluorescence after compound-agonist addition minus baseline fluorescence prior to treatment. Percent inhibition is calculated as follows: […]
A calcium uptake assay was performed as described in paragraphs […] above.

[1] = at 3 μM (symbol before the slash)
[2] = at 10 μM (symbol after the slash)

SMILES | Ca Influx P2X2/3C % Inhibition at 3 μM/10 μM [1] | Ca Influx P2X2/3C % Inhibition at 3 μM/10 μM [2]
Cc1ccc(N2CCc3ncnc(NCCc4ccc(Cl)c(Cl)c4)c3C2)nc1 [Compound 54] | +++/ ^ (compound exhibited 50-75% inhibition at 3 μM) | 
Cc1ccc(N2CCc3ncnc(NCc4cccc(Cl)c4)c3C2)nc1 [Compound 55] | ++++/ ^ (compound exhibited 75% or greater inhibition at 3 μM) | 
Cc1ccc(CNc2ncnc3c2CN(c2ccc(C)cn2)CC3)cc1 [Compound 56] | ++++/ ^ (compound exhibited 75% or greater inhibition at 3 μM) | 
Cc1ccc(N2CCc3ncnc(NCc4cccc(F)c4)c3C2)nc1 [Compound 57] | ++++/ ^ (compound exhibited 75% or greater inhibition at 3 μM) | 
Cc1ccc(N2CCc3ncnc(NCc4ccc(C(C)C)cc4)c3C2)nc1 [Compound 58] | +/ (compound exhibited 0-25% inhibition at 3 μM) | 
COc1ccc(CN(C)c2ncnc3c2CN(c2ccc(C)cn2)CC3)cc1OC [Compound 59] | ++ (compound exhibited 25-50% inhibition at 3 μM) | **** (compound exhibited 25-50% inhibition at 10 μM)
Cc1ccc(N2CCc3ncnc(NCCc4cccc(C(F)(F)F)c4)c3C2)nc1 [Compound 61] | ++++ (compound exhibited 75% or greater inhibition at 3 μM) | **** (compound exhibited 25-50% inhibition at 10 μM)
Cc1ccc(N2CCc3ncnc(N(C)Cc4ccc(Cl)cc4)c3C2)nc1 [Compound 62] | +/ (compound exhibited 0-25% inhibition at 3 μM) | 
COc1ccccc1CN(C)c1ncnc2c1CN(c1ccc(C)cn1)CC2 [Compound 63] | +/ (compound exhibited 0-25% inhibition at 3 μM) | 
COc1cccc(CN(C)c2ncnc3c2CN(c2ccc(C)cn2)CC3)c1 [Compound 64] | +/ (compound exhibited 0-25% inhibition at 3 μM) | 
CCc1ccc(CN(C)c2ncnc3c2CN(c2ccc(C)cn2)CC3)cc1 [Compound 65] | +/ (compound exhibited 0-25% inhibition at 3 μM) | 
Cc1ccc(N2CCc3ncnc(N(C)Cc4cccc(Cl)c4)c3C2)nc1 [Compound 66] | +/ (compound exhibited 0-25% inhibition at 3 μM) | 
Cc1ccc(N2CCc3ncnc(N(C)Cc4ccc(F)cc4)c3C2)nc1 [Compound 67] | + (compound exhibited 0-25% inhibition at 3 μM) | *** (compound exhibited 25-50% inhibition at 10 μM)
COc1ccc(CN(C)c2ncnc3c2CN(c2ccc(C)cn2)CC3)cc1 [Compound 68] | +/ (compound exhibited 0-25% inhibition at 3 μM) | 
Cc1ccc(N2CCc3ncnc(N(C)Cc4ccc(C(F)(F)F)cc4)c3C2)nc1 [Compound 69] | +/ (compound exhibited 0-25% inhibition at 3 μM) | 
Cc1ccc(CN(C)c2ncnc3c2CN(c2ccc(C)cn2)CC3)cc1 [Compound 70] | ++/ (compound exhibited 25-50% inhibition at 3 μM) | 
Cc1ccc(N2CCc3ncnc(NCc4cc(F)ccc4F)c3C2)nc1 [Compound 71] | +++/ ^ (compound exhibited 50-75% inhibition at 3 μM) | 
Cc1ccc(N2CCc3ncnc(NCc4ccc(F)c(F)c4)c3C2)nc1 [Compound 73] | ++++/ ^ (compound exhibited 75% or greater inhibition at 3 μM) | 

SMILES | Ca Influx P2X2/3C % Inhibition at 3 μM/10 μM [1] | Ca Influx P2X2/3C % Inhibition at 3 μM/10 μM [2]
Cc1ccc(N2CCc3ncnc(NCc4cc(C(F)(F)F)ccc4F)c3C2)nc1 [Compound 74] | +/ (compound exhibited 0-25% inhibition at 3 μM) | 
Cc1ccc(N2CCc3ncnc(NCc4cc(F)cc(C(F)(F)F)c4)c3C2)nc1 [Compound 75] | +/ (compound exhibited 0-25% inhibition at 3 μM) | 
Cc1ccc(N2CCc3ncnc(NCc4ccc(F)c(C(F)(F)F)c4)c3C2)nc1 [Compound 76] | +/ (compound exhibited 0-25% inhibition at 3 μM) | 
Cc1ccc(N2CCc3ncnc(NCc4cccc(F)c4F)c3C2)nc1 [Compound 77] | ++++/ ^ (compound exhibited 75% or greater inhibition at 3 μM) | 
Cc1ccc(N2CCc3ncnc(NCc4ccc(Cl)cc4Cl)c3C2)nc1 [Compound 78] | +/ (compound exhibited 0-25% inhibition at 3 μM) | 
Cc1ccc(N2CCc3ncnc(NCc4ccc(C)cc4C)c3C2)nc1 [Compound 79] | ++/ (compound exhibited 25-50% inhibition at 3 μM) | 
Cc1ccc(N2CCc3ncnc(NCc4cccc(C)c4C)c3C2)nc1 [Compound 80] | +/ (compound exhibited 0-25% inhibition at 3 μM) | 
Cc1ccc(N2CCc3ncnc(NCc4ccc(Cl)cc4F)c3C2)nc1 [Compound 83] | +++/ ^ (compound exhibited 50-75% inhibition at 3 μM) | 
Cc1ccc(N2CCc3ncnc(NCc4ccc(Cl)c(Cl)c4)c3C2)nc1 [Compound 85] | +/ (compound exhibited 0-25% inhibition at 3 μM) | 
Cc1ccc(N2CCc3ncnc(NC(C)c4ccc(F)cc4)c3C2)nc1 (stereo not drawn) [Compound 86] | ++++/ ^ (compound exhibited 75% or greater inhibition at 3 μM) | 
COc1cc(CNc2ncnc3c2CN(c2ccc(C)cn2)CC3)cc(OC)c1 [Compound 87] | +/ (compound exhibited 0-25% inhibition at 3 μM) | 
Cc1ccc(N2CCc3ncnc(NCc4cc(C(F)(F)F)ccc4Cl)c3C2)nc1 [Compound 89] | + (compound exhibited 0-25% inhibition at 3 μM) | * (compound exhibited 0-25% inhibition at 10 μM)
Cc1ccc(N2CCc3ncnc(NCc4ccc(F)c(C)c4)c3C2)nc1 [Compound 98] | ++++/ ^ (compound exhibited 75% or greater inhibition at 3 μM) | 
Cc1ccc(N2CCc3ncnc(NCc4cc(Cl)ccc4F)c3C2)nc1 [Compound 111] | +++/ ^ (compound exhibited 50-75% inhibition at 3 μM) | 
Cc1ccc(N2CCc3ncnc(NCc4cc(Cl)cc(Cl)c4)c3C2)nc1 [Compound 115] | +/ (compound exhibited 0-25% inhibition at 3 μM) | 
Cc1ccc(N2CCc3ncnc(NCc4ccc(C(F)(F)F)cc4F)c3C2)nc1 [Compound 121] | ++++/ ^ (compound exhibited 75% or greater inhibition at 3 μM) | 
Cc1ccc(N2CCc3ncnc(NCc4cc(C(F)(F)F)cc(C(F)(F)F)c4)c3C2)nc1 [Compound 125] | +/ (compound exhibited 0-25% inhibition at 3 μM) | 

Reference: US8859545B2, “Tetrahydronaphthyridine and tetrahydropyrido[4,3-D]pyrimidine compounds and compositions thereof useful for the treatment of inflammatory and respiratory diseases” (Evotec AG, priority 2005, dated 2014)
